{"source": "paper PMC9878345", "about": "(Frontiers in Chemistry, 2023)", "molecular_target": "SARS-CoV-2 PLpro (Severe acute respiratory syndrome coronavirus 2, UniProt P0DTD1)", "test": "biochemical", "format": "biochemical", "conditions": "concentration not stated"}
{"compound": "O=c1c2cc(O)c(O)cc2oc2cc(O)c([C@@H]3O[C@H](CO)[C@@H](O)[C@H](O)[C@H]3O)c(O)c12", "note": "[mangiferin, 2-β-D-glucopyranosyl-1,3,6,7-tetrahydroxy-9H-xanthan-9-one]", "values": [{"measurement": "inhibition activity in SARS-CoV-2 PLpro enzymatic activity", "value": "more than 50%"}]}
{"compound": "C/C=C1/[C@H](O[C@@H]2O[C@H](CO)[C@@H](O)[C@H](O)[C@H]2O)OC=C(C(=O)OC)[C@H]1CC(=O)OCCc1ccc(O)c(O)c1", "note": "[oleuropein]", "values": [{"measurement": "inhibition activity in SARS-CoV-2 PLpro enzymatic activity", "value": "more than 50%"}]}
{"compound": "C[C@@H]1O[C@@H](OC[C@H]2O[C@@H](Oc3c(-c4ccc(O)c(O)c4)oc4cc(O)cc(O)c4c3=O)[C@H](O)[C@@H](O)[C@@H]2O)[C@H](O)[C@H](O)[C@H]1O", "note": "[rutin]", "values": [{"measurement": "inhibition activity in SARS-CoV-2 PLpro enzymatic activity", "value": "more than 50%"}]}
